Drawing on patent publication US9783496B2, “Oxindole compounds, solvent-free synthesis and use thereof” (Council of Scientific & Industrial Research, priority 2013, dated 2017), this text covers inhibition for 25 compounds.

The structures appear in SMILES notation.

This experiment deals with M. smegmatis MC^2 155 strain. Nature of the experiment: Antitubercular activity: growth inhibition of M. smegmatis in 96 well microtiter plate (absorbance at 600 nm). It counts as cell-based, Mycobacterium smegmatis. The conditions noted are these: Mycolicibacterium smegmatis, MC^2155, final concentration of compound 30 μM, 32 hrs, determined against DMSO, triplicate, read-out: Percentage inhibition. The method, then: The compounds were tested for their Anti Mycobacterial ability on M. smegmatis MC^2 155 strain. The series of compounds were obtained in 10 mM stock concentrations. Further, each compound was diluted with the required 100% (v/v) DMSO to achieve a working concentration of 1.5 mM. The inoculum for the assay was prepared by reviving a glycerol stock in Middlebrook 7H9 broth supplemented with 0.1% Tween 80 and 0.5% Glycerol. At the time of inoculation, 10% ADS was added to the media and the culture was incubated in a shaker incubator at 37° C. and 200 rpm. The O.D. of the inoculum reached to 0.8-1 approximately, a secondary inoculum was inoculated and subsequently incubated. This was incubated overnight till the O.D. of the inoculum reached 0.4 approx., following which the inoculum was diluted 1:1000 times. In a 96 well microtiter plate, a 2 μL aliquot of the 1.5 mM dilution of compound was added to each well in triplicate, to which 98 μL of inoculum dilution was added, making the final concentration of compound 30 μM. To each plate a set of controls was added to better ascertain the activity of the compounds. These included DMSO, which was taken as a growth control, and media control (Blank) and Rifampicin and Isoniazid, which were taken as positive controls of inhibition of Mycobacterium smegmatis. After the completion of the period of 32 hrs, the absorbance of the inoculum in wells was measured at 600 nm using a Multi Mode Reader. Absorbance is considered directly proportional to the increase in growth of bacteria, thus it gives a measure of the growth of bacteria in each well. Percentage inhibition was determined against DMSO.

As to `CN1C(=O)C(OC(=O)c2cc3ccccc3o2)(C(=O)NC(C)(C)C)c2ccccc21` (stereo not shown), the inhibition at 30 µM is 26.4%.

With `CN1C(=O)C(OC(=O)c2cc3ccccc3[nH]2)(C(=O)NC(C)(C)C)c2ccccc21` (stereo not shown), the inhibition at 30 µM was found to be 9%.

Turning to `CN1C(=O)C(OC(=O)c2ccccn2)(C(=O)NC(C)(C)C)c2ccccc21` (stereo not shown), the inhibition at 30 µM worked out at 5.24%.

On to `CCOC(=O)CNC(=O)C1(OC(=O)c2ccccc2)C(=O)N(C)c2ccccc21` (stereo not shown), for which the inhibition at 30 µM turned out to be 14.7%.

Consider `CN1C(=O)C(OC(=O)/C=C/c2ccccc2)(C(=O)NC(C)(C)C)c2ccccc21` (stereo not shown), for which the inhibition at 30 µM was found to be 7.04%.

As for `COc1ccc(CC(=O)OC2(C(=O)NC(C)(C)C)C(=O)N(C)c3ccccc32)cc1` (stereo not shown), the inhibition at 30 µM worked out at 44.2%.

With `CC(C)NC(=O)C1(OC(=O)c2ccccc2)C(=O)N(C)c2ccccc21` (stereo not shown), the inhibition at 30 µM is -5.24%.

On to `CN1C(=O)C(OC(=O)c2ccccc2)(C(=O)NC2CCCCC2)c2ccccc21` (stereo not shown), for which the inhibition at 30 µM was -8.02%.

For `CN1C(=O)C(OC(=O)c2ccccc2)(C(=O)NC(C)(C)C)c2ccccc21` (stereo not shown) [Compound 4a, 3-(tert-Butylcarbamoyl)-1-methyl-2-oxoindolin-3-yl benzoate], the inhibition at 30 µM was determined as 18.6%.

With `CN1C(=O)C(OC(=O)c2ccccc2F)(C(=O)NC(C)(C)C)c2ccccc21` (stereo not shown) [Compound 4b, 3-(tert-Butylcarbamoyl)-1-methyl-2-oxoindolin-3-yl 2-fluoro benzoate], the inhibition at 30 µM is 24.6%.

In the case of `CN1C(=O)C(OC(=O)c2ccccc2Cl)(C(=O)NC(C)(C)C)c2ccccc21` (stereo not shown) [Compound 4c, 3-(tert-Butylcarbamoyl)-1-methyl-2-oxoindolin-3-yl 2-chloro benzoate], the inhibition at 30 µM was 42.7%.

Take `CN1C(=O)C(OC(=O)c2ccccc2Br)(C(=O)NC(C)(C)C)c2ccccc21` (stereo not shown) [Compound 4d, 3-(tert-butylcarbamoyl)-1-methyl-2-oxoindolin-3-yl 2-bromo benzoate]: the inhibition at 30 µM worked out at 17.3%.

For `CN1C(=O)C(OC(=O)c2cccc([N+](=O)[O-])c2)(C(=O)NC(C)(C)C)c2ccccc21` (stereo not shown) [Compound 4e, 3-(tert-Butylcarbamoyl)-1-methyl-2-oxoindolin-3-yl 3-nitro benzoate], the inhibition at 30 µM was -5.24%.

On to `CN1C(=O)C(OC(=O)c2ccc([N+](=O)[O-])cc2)(C(=O)NC(C)(C)C)c2ccccc21` (stereo not shown) [Compound 4f, 3-(tert-Butylcarbamoyl)-1-methyl-2-oxoindolin-3-yl 4-nitro benzoate], for which the inhibition at 30 µM came out at 21.5%.

In the case of `COc1ccc(C(=O)OC2(C(=O)NC(C)(C)C)C(=O)N(C)c3ccccc32)cc1` (stereo not shown) [Compound 4g, 3-(tert-Butylcarbamoyl)-1-methyl-2-oxoindolin-3-yl 4-methoxy benzoate], the inhibition at 30 µM turned out to be 43.5%.

Take `CN1C(=O)C(OC(=O)c2ccco2)(C(=O)NC(C)(C)C)c2ccccc21` (stereo not shown) [Compound 4h, 3-(tert-Butylcarbamoyl)-1-methyl-2-oxoindolin-3-yl furan-2-carboxylate]: the inhibition at 30 µM was determined as 24.1%.

On to `CN1C(=O)C(OC(=O)c2cccs2)(C(=O)NC(C)(C)C)c2ccccc21` (stereo not shown) [Compound 4i, 3-(tert-Butylcarbamoyl)-1-methyl-2-oxoindolin-3-yl thiophene-2-carboxylate], for which the inhibition at 30 µM is 30.8%.

As to `CC(=O)OC1(C(=O)NC(C)(C)C)C(=O)N(C)c2ccccc21` (stereo not shown) [Compound 4n, 3-(tert-Butylcarbamoyl)-1-methyl-2-oxoindolin-3-yl acetate], the inhibition at 30 µM is 19.6%.

Regarding `CCC(=O)OC1(C(=O)NC(C)(C)C)C(=O)N(C)c2ccccc21` (stereo not shown) [Compound 4o, 3-(tert-Butylcarbamoyl)-1-methyl-2-oxoindolin-3-yl propionate], the inhibition at 30 µM was -1.64%.

As to `CC(C)(C)NC(=O)C1(OC(=O)c2ccccc2)C(=O)N(Cc2ccccc2)c2ccccc21` (stereo not shown) [Compound 4q, 1-Benzyl-3-(tert-Butylcarbamoyl)-2-oxoindolin-3-yl benzoate], the inhibition at 30 µM was 42.9%.

Take `C=CCN1C(=O)C(OC(=O)c2ccccc2)(C(=O)NC(C)(C)C)c2ccccc21` (stereo not shown) [Compound 4r, 1-Allyl-3-(tert-Butylcarbamoyl)-2-oxoindolin-3-yl benzoate]: the inhibition at 30 µM amounted to 35.4%.

Consider `CC(C)(C)NC(=O)C1(OC(=O)c2ccccc2)C(=O)Nc2ccccc21` (stereo not shown) [Compound 4s, 3-(tert-Butylcarbamoyl)-2-oxoindolin-3-yl benzoate], for which the inhibition at 30 µM was determined as 19.1%.

Turning to `CN1C(=O)C(OC(=O)c2ccccc2)(C(=O)NC(C)(C)C)c2cc(F)ccc21` (stereo not shown) [Compound 4u, 3-(tert-Butylcarbamoyl)-5-fluoro-1-methyl-2-oxoindolin-3-yl benzoate], the inhibition at 30 µM worked out at 5.24%.

In the case of `CN1C(=O)C(OC(=O)c2ccccc2)(C(=O)NC(C)(C)C)c2cc(Cl)ccc21` (stereo not shown) [Compound 4v, 3-(tert-Butylcarbamoyl)-5-chloro-1-methyl-2-oxoindolin-3-yl benzoate], the inhibition at 30 µM was found to be 9.49%.

For `CN1C(=O)C(OC(=O)c2ccccc2)(C(=O)NC(C)(C)C)c2cc(Br)ccc21` (stereo not shown) [Compound 4w, 5-Bromo-3-(tert-Butylcarbamoyl)-1-methyl-2-oxoindolin-3-yl benzoate], the inhibition at 30 µM was 23.4%.
